# Reference: US10016424B2, “Method and pharmaceutical composition for use in the treatment of epilepsy” (INSERM (Institut National de la Sante et de la Recherche …, priority 2013, dated 2018)
# Legend:
# [1] = tested on: pilocarpine-status epilepticus model of chronic TLE; assay: Ictal discharges, telemetric intrahippocampal EEG in freely-moving pilocarpine-treated mice; assay type: in vivo, mouse
# Method: All experiments were approved by the Institut National de la Santé et de la Recherche Médicale animal care and use committee of May 29, 2001 (2001-464) and the European community council directive of Nov. 24, 1986 (86/609/EEC). Mice (FVB/N background) had access to food and water ad libitum and were housed under a 12 h light/dark cycle at 22-24° C. Male GluK2−/− and WT mice (P60-80) were given scopolamine (1 mg/kg) subcutaneously (s.c.) 15 minutes prior to s.c. administration of pilocarpine (200-600 mg/kg). A ramp protocol was used whereby animals were given an initial dose of 200 mg/kg followed by half-doses every 30 minutes until seizures appeared. Both WT and GluK2−/− mice typically experienced at least two seizures prior to entering status epilepticus (SE). Diazepam (10 mg/kg) was administered 45 minutes after onset of SE.
# Naïve wildtype (WT) and pilocarpine-treated WT or GluK2−/− mice (5-6 months old) were anaesthetized with xylazine 13 mg/kg/ketamine 66 mg/kg and placed in a stereotaxic frame (supplemental dosing was administered as required). Body temperature was maintained using a heating pad. […] After a 4 day recovery, EEG (amplified (1000×), filtered at 0.16-97 Hz pass, acquired at 500 Hz) was monitored using a telemetric system (Data Sciences International, St. Paul, Minn.) for 4 days, 24 h per day. […]
# [2] = biological target: GluK2/GluK5 receptors (Homo sapiens, UniProt Q13002+Q16478); settings: cited from earlier work
# Chain of GluK2/GluK5 receptors (Q13002 32-908): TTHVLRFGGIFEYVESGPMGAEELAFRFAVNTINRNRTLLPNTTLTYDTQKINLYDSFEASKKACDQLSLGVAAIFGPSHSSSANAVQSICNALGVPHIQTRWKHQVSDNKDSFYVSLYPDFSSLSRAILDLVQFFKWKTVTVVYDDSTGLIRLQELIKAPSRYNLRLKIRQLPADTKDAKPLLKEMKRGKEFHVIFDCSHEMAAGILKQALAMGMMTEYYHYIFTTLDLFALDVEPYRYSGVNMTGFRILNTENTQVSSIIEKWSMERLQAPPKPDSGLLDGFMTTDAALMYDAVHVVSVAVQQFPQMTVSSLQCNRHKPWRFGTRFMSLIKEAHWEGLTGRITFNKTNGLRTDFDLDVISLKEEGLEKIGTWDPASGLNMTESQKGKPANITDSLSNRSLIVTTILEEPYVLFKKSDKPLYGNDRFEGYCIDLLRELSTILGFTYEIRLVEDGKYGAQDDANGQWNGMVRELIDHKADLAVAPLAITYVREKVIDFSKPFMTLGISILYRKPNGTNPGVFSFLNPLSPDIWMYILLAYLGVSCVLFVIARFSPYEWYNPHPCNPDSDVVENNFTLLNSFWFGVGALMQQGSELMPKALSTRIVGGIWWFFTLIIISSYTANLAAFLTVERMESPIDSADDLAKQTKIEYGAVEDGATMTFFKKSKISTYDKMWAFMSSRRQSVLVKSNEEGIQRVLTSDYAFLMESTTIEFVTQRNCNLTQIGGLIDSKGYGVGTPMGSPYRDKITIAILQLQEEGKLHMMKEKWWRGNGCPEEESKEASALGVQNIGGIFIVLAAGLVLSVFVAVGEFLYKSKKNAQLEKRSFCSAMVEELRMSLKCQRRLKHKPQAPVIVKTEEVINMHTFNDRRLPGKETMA
# Chain of GluK2/GluK5 receptors (Q16478 15-980): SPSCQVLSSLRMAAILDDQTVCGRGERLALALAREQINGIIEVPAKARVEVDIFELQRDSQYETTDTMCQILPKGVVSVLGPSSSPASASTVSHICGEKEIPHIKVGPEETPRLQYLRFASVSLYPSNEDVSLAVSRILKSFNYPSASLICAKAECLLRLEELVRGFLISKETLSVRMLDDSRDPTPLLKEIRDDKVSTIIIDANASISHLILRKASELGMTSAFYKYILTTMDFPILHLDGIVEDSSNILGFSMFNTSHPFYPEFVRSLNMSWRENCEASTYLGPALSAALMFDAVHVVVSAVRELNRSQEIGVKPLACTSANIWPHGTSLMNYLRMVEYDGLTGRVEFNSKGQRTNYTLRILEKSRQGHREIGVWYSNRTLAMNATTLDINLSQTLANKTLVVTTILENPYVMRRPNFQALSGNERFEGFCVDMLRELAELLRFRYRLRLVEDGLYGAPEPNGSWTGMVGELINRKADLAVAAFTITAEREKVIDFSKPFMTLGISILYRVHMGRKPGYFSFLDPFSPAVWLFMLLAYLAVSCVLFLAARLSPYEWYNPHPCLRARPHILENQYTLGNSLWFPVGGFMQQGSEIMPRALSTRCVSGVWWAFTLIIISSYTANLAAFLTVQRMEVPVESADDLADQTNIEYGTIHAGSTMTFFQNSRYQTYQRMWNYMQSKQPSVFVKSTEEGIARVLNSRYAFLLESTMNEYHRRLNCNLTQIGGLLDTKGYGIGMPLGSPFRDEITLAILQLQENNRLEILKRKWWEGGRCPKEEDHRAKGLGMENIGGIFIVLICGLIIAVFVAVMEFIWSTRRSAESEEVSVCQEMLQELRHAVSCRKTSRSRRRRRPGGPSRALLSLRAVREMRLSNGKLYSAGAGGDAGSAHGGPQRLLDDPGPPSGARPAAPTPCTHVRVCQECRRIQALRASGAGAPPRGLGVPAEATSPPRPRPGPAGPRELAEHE
# [3] = biological target: homomeric GluK2 receptors (Homo sapiens, UniProt Q13002); settings: cited from earlier work
# Chain of homomeric GluK2 receptors (Q13002 32-908): as the sequence (Q13002 32-908) above
# [4] = tested on: AMPA receptor; settings: cited from earlier work
structure (smiles),measurement,setting,value
Cc1cn(C[C@H](N)C(=O)O)c(=O)n(Cc2ccsc2C(=O)O)c1=O [UBP310],change in duration of ictal events,"[1]; 60 mg/kg intraperitoneal for 3 days, P=0.286",without a significant change
same,reduction of number of ictal events,"[1]; 60 mg/kg intraperitoneal twice a day for 3 days, WT epileptic mice, freely moving",41%
same,inhibition of heteromeric GluK2/GluK5 receptors,[2],inhibits GluK2/GluK5
same,inhibition of homomeric GluK2 receptors,[3],not homomeric GluK2 receptors
same,interference with normal synaptic transmission due to the AMPA receptor,[4],does not interfere
